According to US4377576A, “5-(Heterocyclic amino-propionyl)-5,10-dihydro-11H-dibenzo[b,e][1,4]diazepin-11-ones” (Karl Thomae Gesellschaft mit beschrankter Haftung, priority 1980, dated 1983):
Counter-ions that a name gives are not always drawn.

What was measured:
[1] = test system: gastric secretion (free and total hydrochloric acid in the gastric fluid); experiment: Inhibition of gastric fluid secretion (liberation of acid), pylorus ligature, method of Shay et al.; type: in vivo, male Crl:COBS (WI) BR Albino rats; details: Rat, i.d., 4 hours after pylorus ligature
Procedure: The inhibiting activity on the gastric secretion was tested in male Crl:COBS (WI) BR Albino rats having a weight of 100 to 125 gm, according to the method of Shay et al., Gastroenterology 26, 906 (1954). The rats were fasted for 24 hours and then anesthetized with ether. The […] was opened, and the pylorus was tied up. […] The control animals received the same volume of the vehicle (0.2% methyl cellulose solution). After 4 hours the animals were killed by dislocating the neck vertebra, the stomachs were removed, opened along the great curvature and the gastric fluid collected. The free and total hydrochloric acid in the gastric fluid was measured by titration with N/10 sodium hydroxide solution. The results were determined in percent from the data received from the treated and untreated animals. The ED50 values were calculated by linear regression analysis of the probits according to the method described by D. J. Finney, Probit Analysis, Cambridge University Press, 1971.

Acute toxicity = details: in vivo, po; Mouse
Procedure: The acute toxicity was determined in male CrL-COBS-CD-I(ICR) mice of an average body weight of 22 to 24 gm which had been fasted for 24 hours. Different doses of each compound were administered to groups of 5 to 10 animals by means of an esophageal tube, and the LD50 -values were calculated by the method of D. J. Finney (supra).

stomach ulcers = experiment: Inhibiting effect on the formation of stomach ulcers (acetyl salicylic acid and close-meshed wire cage), method of P. A. Brown; type: in vivo, female Crl:COBS-CD(SD)Br rats; details: po, 0.5 h; Rat, p.o., acetyl salicylic acid 30 min after compound, then wire cage; read-out: Ulcer Inhibition ED50
Procedure: The inhibiting effect on the formation of stomach ulcers was tested in female Crl:COBS-CD(SD)Br rats having a weight of 130 to 160 gm, according to the method of P. A. Brown, European J. Pharmacol. 51, 275 (1978). The animals were fasted for 24 hours, and the compounds were suspended in a 0.2% methyl cellulose solution and administered to the animals using an esophageal tube. After 30 minutes the animals received acetyl salicylic acid perorally at a dose of 8 mg/kg, and after another 30 minutes the animals were placed at room temperature into a close-meshed wire cage. After one hour the animals were killed by dislocating the neck vertebra, the stomach was removed, opened by cutting along the great curvature, the inner side was outwardly spread out on a test tube, and the presence of stomach ulcers was recorded. The activity of the compounds was determined by counting the numbers of stomachs which were free of ulcers. The ED50 was calculated according to the method described by J. T. Litchfield and F. Wilcoxon, J. Pharmac. Exp. Therap. 96, 99 (1949).

[2] = Mydriasis: effect on the size of the pupil; design: species or system male Crl:COBS-CD(SD)BR rats; details: in vivo, po; Rat, percent of maximum pupil diameter obtained by atropine, 30-120 min
Procedure: The effect on the size of the pupil was tested in male Crl:COBS-CD(SD)BR rats having a body weight of 100 to 130 gm by using a […]-binocular microscope with a graduated lens and a 10-fold magnification. The compounds were suspended in a 0.2% methyl cellulose solution and administered using an esophageal tube; groups of 5 animals were used per dose. The control animals received the same volume (1 ml/100 gm of body weight) of the vehicle. The diameter of the pupil was measured before administering the test compound, and 30, 60, 90 and 120 minutes after the treatment. The activity was expressed in percent with regard to the maximum diameter obtained by means of atropine. The ED50 was determined by linear regression analysis of the probits according to the method described by D. J. Finney (supra).

Structure (SMILES): CN1C(=O)c2ccccc2N(C(=O)CCN2CCCC2)c2ccccc21 [B, 5,10-dihydro-10-methyl-5-(3-pyrrolidino-propionyl)-11H-dibenzo[b,e,][1,4]diazepin-11-one hydrochloride]
- ED50 [1]: 0.73 mg/kg
- LD50 (Acute toxicity): 574 mg/kg
- ED50 (stomach ulcers): 2.05 mg/kg

Structure (SMILES): CN1C(=O)c2ccccc2N(C(=O)CN2CCCC2)c2ccccc21 [E, 5,10-dihydro-10-methyl-5-(pyrrolidino-acetyl)-11H-dibenzo[b,e,][1,4]diazepin-11-one hydrochloride]
- ED50 [1]: 18.1 mg/kg
- LD50 (Acute toxicity): 816 mg/kg
- ED50 [2]: 9.84 mg/kg
- ED50 (stomach ulcers): 8.4 mg/kg

Structure (SMILES): Cl.O=C1Nc2ccccc2N(C(=O)CCN2CCCCC2)c2ccccc21 [C, 5,10-dihydro-5-(3-piperidino-propionyl)-11H-dibenzo[b,e][1,4]diazepin-11-one hydrochloride]
- ED50 [1]: 1.6 mg/kg
- LD50 (Acute toxicity): 813 mg/kg
- ED50 [2]: 3.84 mg/kg
- ED50 (stomach ulcers): 2.1 mg/kg

Structure (SMILES): O=C1Nc2ccccc2N(C(=O)CN2CCCC2)c2ccccc21 [D, 5,10-dihydro-5-(pyrrolidino-acetyl)-11H-dibenzo[b,e][1,4]diazepin-11-one]
- ED50 [1]: 8.15 mg/kg
- LD50 (Acute toxicity): 860 mg/kg
- ED50 [2]: 9.91 mg/kg
- ED50 (stomach ulcers): 10.2 mg/kg

Structure (SMILES): Cl.O=C1Nc2ccccc2N(C(=O)CCN2CCCC2)c2ccccc21 [A, 5,10-dihydro-5-(3-pyrrolidino-propionyl)-11H-dibenzo[b,e][1,4]diazepin-11-one hydrochloride]
- ED50 [1]: 0.2 mg/kg
- LD50 (Acute toxicity): 609 mg/kg
- ED50 [2]: 3.61 mg/kg
- ED50 (stomach ulcers): 1.27 mg/kg

Structure (SMILES): O=C1Nc2ccccc2N(C(=O)CN2CCCCC2)c2ccccc21 [F, 5,10-dihydro-5-(piperidino-acetyl)-11H-dibenzo[b,e,][1,4]diazepin-11-one]
- ED50 [1]: 6.17 mg/kg
- LD50 (Acute toxicity): 600 mg/kg
- ED50 [2]: 5.82 mg/kg
- ED50 (stomach ulcers): 10.4 mg/kg
